Source: patent US20030134779A1, “Method and composition for treatment and/or prevention of antibiotic-resistant microorganism infections” (priority 2002, published 2003)
Read-outs that look alike come from different tables or passages of the source.

Experiments:
S. aureus NCTC = assay: MIC of penicillin G alone or with bovine LF, macrodilution; assay type: cell-based; conditions: Staphylococcus aureus, strain β-lactamase +A
Description: (§1) Staphylococcus aureus strains ATCC 25923 and 6538 and Escherichia coli ATCC 25922 were obtained from the American Type Culture Collection. Eight bovine mastitis clinical isolates of S. aureus (SHY97-3906, -3923, -4085 -4242, -4320 and -4343, RFT-1 and RFT-5) and one isolate of E. coli SHY97-3923-2 and one isolate of Kiebsiella pneumoniae SHY99-723-1 were kindly provided by the Laboratoire Provincial de Pathologie Animale of St-Hyacinthe and of Rock-Forest (Quebec, Canada), respectively. Nine β-lactam antibiotics resistant S. aureus strains (PC-1, NCTC 9789, 2076, 22260, ST79/741, 3804, RN9, FAR8, and FAR10) were obtained from Vanderbilt University School of Medicine (Nashville, Tenn., USA). All the culture media were from Difco Laboratories (Detroit, Mich.). Bacteria from frozen stock at −80° C. were streaked onto tryptic soy agar plates suplemented with 5% of defibrinated sheep blood (Quelab, Montreal, QC, Canada) or Brain Heart infusion agar plates. Plates were then incubated for 16 to 24 h at 37° C. For most experiments, the strains were subcultured onto Mueller Hinton agar plates (MHA) or broth (MHB) for an additional 16-20 h. Aqueous solutions of the tested products were added by filtration through a sterile filter assembly (pore size 0.2 μm, Fisher, Ottawa, Ontario).
(§2) The MICs were determined by both macrodilution (1 ml/tube) and microdilution (100 μl/well) in sterile 96 well microtiter plates (International Nunc, Napierville, Ill.) techniques in three separate experiments according to the National Committee for Clinical Laboratory Standards (1992 and 1999) in three separate experiments. Serial 2-fold dilutions in MHB of LF, LFC, antibiotic or combination of LF or LFC with antibiotic were inoculated with an overnight culture at a final inoculum of 10^6 cfu/ml in MHB. Effect of LF combination with antibiotic on MICs were determined by adding 0.5 mg or 1 mg/ml of LF to each antibiotic dilution. The MIC was defined as the lowest concentration of drug (highest dilution) that caused a complete inhibition of bacterial growth after an incubation of 18 h. Effect of LF or LFC combination with antibiotic on MIC was also determined by checkerboard method using 96 well microtiter plates. Each antibiotic dilution (50 μl) was serially added to the wells in vertical rows starting from the top (lower dilution) to the bottom. Lactoferrin or LFC (50 μl) were added to 50 μl of each antibiotic dilution and serially diluted starting at the left (lower dilution) to the right. After inoculation, the final concentration of antibiotic from top to bottom were 32 to 8, 2 to 0.5, 0.5 to 0.125 μg/ml for penicillin, cefazolin and neomycin, respectively. From left to right, the concentration of LF or LFC were 25 to 0.0244 mg/ml or 256 to 0.5 μg/ml respectively in a final volume of 100 μl/well. The microplate's were incubated at 37° C. for 24 h. Bacterial growth was measured optically at 540 nm using Spectra Max 250 Microplate Spectrophotometer System of Molecular Device (Fisher Scientific, Ottawa, Canada). Tubes were incubated at 37° C. for 18 h and bacterial growth was measured by visual examination and optically at 540 nm using a spectrophotometer (Philips PU 8800; Pye Unican Ltd, Cambridge, UK). The fractional inhibitory concentration (FIC) was calculated as described by Eliopoulos and Moellering (1991).

S. aureus SHY97-3906 = assay: as above; assay type: cell-based; conditions: Staphylococcus aureus, strain β-lactamase + uncharacterised, read-out: MICs of penicillin G
Description: as §1, §2

S. aureus SHY97-3923 = assay: as above; assay type: cell-based; conditions: Staphylococcus aureus, strain β-lactamase type −, read-out: MICs of penicillin G
Description: as §1, §2

S. aureus SHY97-4320 = assay: as above; assay type: cell-based; conditions: Staphylococcus aureus, strain β-lactamase + uncharacterised, read-out: MICs of penicillin G
Description: as §1, §2

S. aureus PC-1 = assay: Cell morphology by transmission electron microscopy; assay type: cell-based, Staphylococcus aureus; conditions: penicillin G 8 μg/ml alone; 4-h
Method: Bacterial cells were grown overnight on MHA or MHB containing sub-MICs of penicillin G with or without LF or LFC. Microorganisms were prepared for transmission electron microscopy by fixation with glutaraldehyde followed by ferritin labelling. This method allows good- preservation of capsular material. Briefly, bacterial cells grown in the presence or absence of antibiotics were fixed in cacodylate buffer (0.1 M, pH 7.0) containing 5% (v/v) glutaraldehyde, for 2 h at 20° C. Fixed microorganims were suspended in cacodylate buffer and allowed to react with the polycationic ferritin (Sigma Chemicals, St-Louis, Mo.; final concentration 1.0 mg/ml) for 30 min at 20° C. The reaction was slowed down by 10-fold dilution with buffer, and the microorganisms were centrifuged and washed three times in cacodylate buffer. Bacterial cells were then immobilized in 4% (w/v) agar, washed 5 times in cacodylate buffer and post-fixed with 2% (w/v) osmium tetroxide for 2 h. Washings were repeated as above, and the samples dehydrated in a graded series of acetone washes. Samples were then washed twice in propylene oxide and embedded in Spurr low-viscosity resin. Thin sections were post-stained with uranyl acetate and lead citrate and examined with an electron microscope (Philips 201) at an accelerating voltage of 60 kV.
Bacterial cells of PC-1 (a constitutively high producing β-lactamase strain) were grown overnight in MHB containing 8 μg/ml of penicillin G, 16 μg/ml of LFC alone or in combination for 4-h at 37° C. with agitation at 150 rpm. Bacteria cell morphology was evaluated by transmission electron microscopy after fixation and ferritin labelling method as previously described.

CC1(C)S[C@@H]2[C@H](NC(=O)Cc3ccccc3)C(=O)N2[C@H]1C(=O)O [penicillin G, Penicillin G]
MIC (S. aureus NCTC; read-out: MICs of penicillin G, +0.5 mg/ml LF): 128 µg/mL
MIC (S. aureus NCTC; read-out: MICs of penicillin G, +1 mg/ml LF): 128 µg/mL
MIC (S. aureus NCTC; read-out: MICs of penicillin G, Alone): > 128 µg/mL
MIC (S. aureus SHY97-3906; SHY973906, +0.5 mg/ml LF): 0.5 µg/mL
MIC (S. aureus SHY97-3906; SHY973906, +1 mg/ml LF): 0.25 µg/mL
MIC (S. aureus SHY97-3906; SHY973906, Alone): 0.5 µg/mL
MIC (S. aureus SHY97-3923; SHY973923, +0.5 mg/ml LF): 0.007 µg/mL
MIC (S. aureus SHY97-3923; SHY973923, +1 mg/ml LF): 0.007 µg/mL
MIC (S. aureus SHY97-3923; SHY973923, Alone): 0.015 µg/mL
MIC (S. aureus SHY97-4320; SHY974320, +0.5 mg/ml LF): 32 µg/mL
MIC (S. aureus SHY97-4320; SHY974320, +1 mg/ml LF): 32 µg/mL
MIC (S. aureus SHY97-4320; SHY974320, Alone): 64 µg/mL
cell morphology (S. aureus PC-1): no effects on morphology
